Experimental data published in patent US20110039721A1, “METHOD FOR PREDICTION ABOUT CARCINOGENICITY OF SUBSTANCE IN RODENT” (Chemicals Evaluation and Research Institute, priority 2007, published 2011).
Like-named read-outs stand apart in the source and are kept apart here.

Tests used:
[1] = test system: mRNA expressed from the genes (A) to (D) in rat liver; experiment: Behavior of genes (mRNA expression level, oligo-DNA microarray) in rat liver after 28-day oral administration; assay type: in vivo
Method in brief: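 Liver mRNA measured by oligo-DNA microarray after 28 days of once-daily oral gavage in 5-week-old male F344 rats (n=4 per group), with vehicle controls given equal solvent volume. Significance threshold: 1.5-fold up or down versus control, with changes opposite in direction to other carcinogens counted as not significant.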

rodent = conditions: cited from earlier work
liver = conditions: cited from earlier work
[2] = gene group (A), Unigene No. Rn.167075, mRNA vs vehicle control group
[3] = gene group (C), Unigene No. Rn.120914, mRNA vs vehicle control group

CCCCC(CC)COC(=O)CCCCC(=O)OCC(CC)CCCC (stereo not shown) [TS018, Di(2-ethylhexyl)adipate]
Behavior of gene caused by administration of chemical substance, Gene No. 4846 ([1]; gene group (A), Unigene No. Rn.144554, mRNA vs vehicle control group): − | Behavior of gene caused by administration of chemical substance, Gene No. 2026 [1, 2]: − | Behavior of gene caused by administration of chemical substance, Gene No. 4218 [1, 2]: − | Behavior of gene caused by administration of chemical substance, Gene No. 6182 ([1]; gene group (A), Unigene No. Rn.5834, mRNA vs vehicle control group): + | Behavior of gene caused by administration of chemical substance, Gene No. 5600 ([1]; gene group (A), Unigene No. Rn.9836, mRNA vs vehicle control group): − | Behavior of gene caused by administration of chemical substance, Gene No. 1494 ([1]; gene group (B), Unigene No. Rn.1430, mRNA vs vehicle control group): + | Behavior of gene caused by administration of chemical substance, Gene No. 2045 ([1]; gene group (B), Unigene No. Rn.19329, mRNA vs vehicle control group): + | Behavior of gene caused by administration of chemical substance, Gene No. 2203 ([1]; gene group (B), Unigene No. Rn.21240, mRNA vs vehicle control group): + | Behavior of gene caused by administration of chemical substance, Gene No. 533 ([1]; gene group (C), Unigene No. Rn.106184, mRNA vs vehicle control group): + | Behavior of gene caused by administration of chemical substance, Gene No. 725 ([1]; gene group (C), Unigene No. Rn.108075, mRNA vs vehicle control group): − | Behavior of gene caused by administration of chemical substance, Gene No. 1163 ([1]; gene group (C), Unigene No. Rn.11766, mRNA vs vehicle control group): − | Behavior of gene caused by administration of chemical substance, Gene No. 4973 ([1]; gene group (C), Unigene No. Rn.118529, mRNA vs vehicle control group): + | Behavior of gene caused by administration of chemical substance, Gene No. 4095 ([1]; gene group (C), Unigene No. Rn.119024, mRNA vs vehicle control group): + | Behavior of gene caused by administration of chemical substance, Gene No. 1334 [1, 3]: − | Behavior of gene caused by administration of chemical substance, Gene No. 6620 [1, 3]: − | Behavior of gene caused by administration of chemical substance, Gene No. 6303 ([1]; gene group (C), Unigene No. Rn.123063, mRNA vs vehicle control group): − | Behavior of gene caused by administration of chemical substance, Gene No. 5878 ([1]; gene group (C), Unigene No. Rn.143213, mRNA vs vehicle control group): − | Behavior of gene caused by administration of chemical substance, Gene No. 1131 ([1]; gene group (C), Unigene No. Rn.144946, mRNA vs vehicle control group): − | Behavior of gene caused by administration of chemical substance, Gene No. 1562 ([1]; gene group (C), Unigene No. Rn.14744, mRNA vs vehicle control group): − | Behavior of gene caused by administration of chemical substance, Gene No. 1741 ([1]; gene group (C), Unigene No. Rn.1647, mRNA vs vehicle control group): − | Behavior of gene caused by administration of chemical substance, Gene No. 893 ([1]; gene group (C), Unigene No. Rn.164817, mRNA vs vehicle control group): − | Behavior of gene caused by administration of chemical substance, Gene No. 6026 ([1]; gene group (C), Unigene No. Rn.167685, mRNA vs vehicle control group): − | Behavior of gene caused by administration of chemical substance, Gene No. 154 ([1]; gene group (C), Unigene No. Rn.185941, mRNA vs vehicle control group): − | Behavior of gene caused by administration of chemical substance, Gene No. 1993 ([1]; gene group (C), Unigene No. Rn.18728, mRNA vs vehicle control group): − | Behavior of gene caused by administration of chemical substance, Gene No. 813 ([1]; gene group (C), Unigene No. Rn.201760, mRNA vs vehicle control group): − | Behavior of gene caused by administration of chemical substance, Gene No. 2494 ([1]; gene group (C), Unigene No. Rn.23969, mRNA vs vehicle control group): − | Behavior of gene caused by administration of chemical substance, Gene No. 2546 ([1]; gene group (C), Unigene No. Rn.24561, mRNA vs vehicle control group): − | Behavior of gene caused by administration of chemical substance, Gene No. 3776 ([1]; gene group (C), Unigene No. Rn.43232, mRNA vs vehicle control group): − | Behavior of gene caused by administration of chemical substance, Gene No. 3929 ([1]; gene group (C), Unigene No. Rn.4620, mRNA vs vehicle control group): − | Behavior of gene caused by administration of chemical substance, Gene No. 1119 ([1]; gene group (C), Unigene No. Rn.9757, mRNA vs vehicle control group): − | Behavior of gene caused by administration of chemical substance, Gene No. 6742 ([1]; gene group (C), Unigene No. Rn.9779, mRNA vs vehicle control group): − | Behavior of gene caused by administration of chemical substance, Gene No. 5634 ([1]; gene group (C), Unigene No. Rn.9862, mRNA vs vehicle control group): − | Behavior of gene caused by administration of chemical substance, Gene No. 5726 ([1]; gene group (D), Unigene No. Rn.9939, mRNA vs vehicle control group): − | Carcinogenicity (rodent; classification of the substance (C+/C−)): C+ | Liver carcinogenicity (liver; classification of the substance (Cr+/Cr−)): Cr−

Cl[C@H]1[C@H](Cl)[C@H](Cl)[C@@H](Cl)[C@H](Cl)[C@H]1Cl [TS021, α-Hexachlorocyclohexane]
Behavior of gene caused by administration of chemical substance, Gene No. 154 ([1]; rat, in vivo): − | Behavior of gene caused by administration of chemical substance, Gene No. 533 ([1]; rat, in vivo): + | Behavior of gene caused by administration of chemical substance, Gene No. 725 ([1]; rat, in vivo): − | Behavior of gene caused by administration of chemical substance, Gene No. 813 ([1]; rat, in vivo): + | Behavior of gene caused by administration of chemical substance, Gene No. 893 ([1]; rat, in vivo): − | Behavior of gene caused by administration of chemical substance, Gene No. 1119 ([1]; rat, in vivo): − | Behavior of gene caused by administration of chemical substance, Gene No. 1131 ([1]; rat, in vivo): − | Behavior of gene caused by administration of chemical substance, Gene No. 1163 ([1]; rat, in vivo): − | Behavior of gene caused by administration of chemical substance, Gene No. 1334 ([1]; rat, in vivo): − | Behavior of gene caused by administration of chemical substance, Gene No. 1494 ([1]; rat, in vivo): + | Behavior of gene caused by administration of chemical substance, Gene No. 1562 ([1]; rat, in vivo): − | Behavior of gene caused by administration of chemical substance, Gene No. 1741 ([1]; rat, in vivo): + | Behavior of gene caused by administration of chemical substance, Gene No. 1993 ([1]; rat, in vivo): − | Behavior of gene caused by administration of chemical substance, Gene No. 2026 ([1]; rat, in vivo): − | Behavior of gene caused by administration of chemical substance, Gene No. 2045 ([1]; rat, in vivo): + | Behavior of gene caused by administration of chemical substance, Gene No. 2203 ([1]; rat, in vivo): + | Behavior of gene caused by administration of chemical substance, Gene No. 2494 ([1]; rat, in vivo): − | Behavior of gene caused by administration of chemical substance, Gene No. 2546 ([1]; rat, in vivo): − | Behavior of gene caused by administration of chemical substance, Gene No. 3776 ([1]; rat, in vivo): − | Behavior of gene caused by administration of chemical substance, Gene No. 3929 ([1]; rat, in vivo): − | Behavior of gene caused by administration of chemical substance, Gene No. 4095 ([1]; rat, in vivo): + | Behavior of gene caused by administration of chemical substance, Gene No. 4218 ([1]; rat, in vivo): − | Behavior of gene caused by administration of chemical substance, Gene No. 4846 ([1]; rat, in vivo): − | Behavior of gene caused by administration of chemical substance, Gene No. 4973 ([1]; rat, in vivo): + | Behavior of gene caused by administration of chemical substance, Gene No. 5600 ([1]; rat, in vivo): − | Behavior of gene caused by administration of chemical substance, Gene No. 5634 ([1]; rat, in vivo): + | Behavior of gene caused by administration of chemical substance, Gene No. 5726 ([1]; rat, in vivo): − | Behavior of gene caused by administration of chemical substance, Gene No. 5878 ([1]; rat, in vivo): − | Behavior of gene caused by administration of chemical substance, Gene No. 6026 ([1]; rat, in vivo): − | Behavior of gene caused by administration of chemical substance, Gene No. 6182 ([1]; rat, in vivo): + | Behavior of gene caused by administration of chemical substance, Gene No. 6303 ([1]; rat, in vivo): + | Behavior of gene caused by administration of chemical substance, Gene No. 6620 ([1]; rat, in vivo): − | Behavior of gene caused by administration of chemical substance, Gene No. 6742 ([1]; rat, in vivo): + | Carcinogenicity (rodent; in vivo): C+ | Liver carcinogenicity (liver; in vivo): Cr+
